In patent US8962612B2, “Tetrahydroisoquinoline derivative” (Astellas Pharma Inc, priority 2011, dated 2015):

How the values were obtained:
human 5-HT5A receptor = human 5-HT5A receptor (Homo sapiens (Human), UniProt P47898); assay: Human 5-HT5A receptor binding inhibition test ([3H]5-CT); settings: [3H]5-CT binding, membranes of HEK293 cells expressing human 5-HT5A receptor; Ki calculated from IC50, Kd 4.95 nM
Method: An open reading frame (ORF; protein coding region) of human 5-HT5A receptor (Genbank AF498985) was cloned from a human hippocampus cDNA library and then inserted into a pCR2.1 vector (Invitrogen), and E. coli carrying the plasmid was cultured in a large scale. Thereafter, a full-length cDNA sequence of the human 5-HT5A receptor was analyzed and recombined into pcDNA3.1 vector (Invitrogen) as an expression vector, followed by a large scale culturing. The HEK293 cells (ATCC) as a human embryonic kidney-derived cell line were seeded, and the expression plasmid (1 μg) obtained as above was added thereto together with LIPOFECTAMINE 2000 (Invitrogen; 2 μl) to introduce genes into the HEK293 cells. Subsequently, expression cells were screened using Geneticin (G418 sulfate 500 μg/ml; KANTO KAGAKU) as a drug resistance marker. The recombinant cells expressing the genes prepared in this manner were cultured for 3 days in Dulbecco's Modified Eagle Medium (D-MEM, Sigma) supplemented with 10% fetal calf serum (FCS), 1% penicillin/streptomycin (Pc./Sm, Invitrogen), and 500 μg/ml G418. The above experimental procedure was performed according to a genetic engineering experiment manual of a known method (Sambrook, J. et al, “Molecular Cloning-A Laboratory manual”, Cold Spring Harbor Laboratory, NY, 1989) or the like, or the instruction attached to the reagents.
The HEK293 cells forced to express the human 5-HT5A receptor were cultured in a F500 plate and collected by being scarped with a scraper. After centrifugation, the sediment was collected, and an incubation buffer (50 mM Tris(HCl), pH 7.4, 10 mM MgSO4, 0.5 mM ethylenediaminetetraacetic acid (EDTA)) was added thereto. After homogenization, centrifugation was performed again, and the sediment was thoroughly suspended in the incubation buffer added thereto. After this procedure was repeated, the protein concentration was measured, thereby completing membrane preparation.
A test compound and 150 μM of a DMSO solution of 5-carboxamide tryptamine (5-CT) were added to a 96-well plate at 2 μl/well and suspended in the incubation buffer, and the HEK293 cells forced to express the human 5-HT5A receptor that were prepared at a concentration of 200 μg/ml were added thereto at 100 μl/well. The cells were incubated for 15 minutes at room temperature, and then a [^3H]5-CT solution (3 nM [^3H]5-CT, incubation buffer) was added thereto at 100 μl/well.
100 μl of the cell solution was separately dispensed into a liquid scintillation vial, and 2 ml of Aquasol II (registered trademark) was added thereto, followed by stirring. Thereafter, the radioactivity thereof was measured using a liquid scintillation counter. The cells were incubated for 60 minutes at 37° C. The reaction mixture was aspirated into a 96-well GF/C filter plate having undergone pretreatment with 0.2% polyethyleneimine, and washed 6 times with an ice-cold 50 mM Tris (pH 7.4) buffer. Thereafter, the GF/C filter plate was dried.
MicroScint™-PS (registered trademark) was added to the plate at 40 μl/well, and the radioactivity remaining on the GF/C filter plate was measured using TopCount.
In each test example, regarding the [^3H]5-CT binding inhibitory activity resulting from the test compound, the radioactivity at the time when only DMSO was added was regarded as 0%, and the radioactivity at the time when 1.5 μM 5-CT was added was regarded as 100% inhibition, thereby calculating an IC50 value. In addition, from a Kd value of [^3H]5-CT obtained from Scatchard analysis, a Ki value was calculated by the following formula. Ki=IC50/(1+concentration of ligand added/Kd(4.95 nM))

male ICR mouse [1] = assay: MK-801-induced increase in level of physical activity (hyperactivity) of mouse; format: in vivo; settings: MK-801 0.3 mg/kg, significance P<0.05 vs vehicle
Method: (§1) The improvement effect of the compound of formula (I) on schizophrenia was evaluated by the measurement of the level of physical activity reduced by the administration of the compound, in a model having symptoms induced by methamphetamine (hereinafter, abbreviated to MAP) and MK-801.
(§2) The animals were taken out of a breeding cage, and the test compound was orally administered to the animal. Thereafter, the animals were put in the breeding cage. 30 minutes later, the animals were put in a cage for measurement, and the level of physical activity of the animals administered only with the test compound was measured. Another 30 to 90 minutes later, the animals were taken out, and drugs (MAP; 1.5 mg/kg or MK-801; 0.3 mg/kg dissolved in physiological saline) increasing the level of physical activity were respectively administered to the animals subcutaneously or intraperitoneally. The level of physical activity for a certain period of time (60 minutes) was measured using an instrument measuring a level of physical activity (CompACT AMS, MUROMACHI KIKAI CO., LTD.) by an infrared sensor.
For the normal mouse (mouse administered with physiological saline) and the mouse administered with the medication increasing the level of physical activity, Student's T test was performed in the respective intervals to judge the effect. For the group administered with the test compound, Dunnett's T test was performed for the comparison with a vehicle group, whereby the effect of the compound was tested. When there was a significant difference (P<0.05), the compound was judged to be effective.

male ddy mouse = assay: Scopolamine-induced spontaneous alternation behavior in mouse (Y-maze); format: in vivo; settings: scopolamine 0.5 mg/kg i.p., alternation rate, p<0.05 vs control
Method: The improvement effect of the compound of formula (I) on dementia and the cognitive disease of schizophrenia was evaluated by the known test method described above by using a short-term learning disability model.
10 to 30 minutes after the test compound was orally administered, scopolamine at 0.5 mg/kg or MK-801 (physiological saline for a normal group) at 0.15 mg/kg was intraperitoneally administered, and the test was performed 20 minutes after the administration. In addition, for a normal group (group administered with physiological saline) and a control group (group administered with scopolamine at 0.5 mg/kg or MK-801 at 0.15 mg/kg), a vehicle was orally administered when the test compound was administered.
The mouse was put into one end of an arm of a maze (Y-maze) having arms of the same length that extended in three directions. The mouse was allowed to freely explore for 8 minutes, and the number of entries into the arm for the 8 minutes was counted. Moreover, a case where the mouse consecutively entered three different arms was regarded as spontaneous alternation behavior, and a ratio of the number of times of such a behavior to the total entry number was regarded as alternation rate and calculated by the following formula. Alternation rate(%)=number of times of spontaneous alternation behavior/(total entry number−2)×100
When a significant difference (Student's T test) was observed between the normal group and the control group in the alternation rate (%), the learning disability was considered to be induced by the administration of scopolamine or MK-801. By performing Dunnette's test for comparing the test compound-administered groups with the control group, whether or not the test compound has an action […] was determined. In each test, p<0.10 was regarded as a trend, and p<0.05 was regarded as a significant difference.

BALB/3T3 = assay: Test for evaluating phototoxic effect (neutral red incorporation, UV irradiation); format: cell-based; settings: BALB/3T3, UV 70 minutes 1200 μW/cm2 vs non-irradiated
Method: 1) BALB/3T3 is peeled from a culture flask, and the cell number is counted.
2) The cell concentration is adjusted to 0.7×10^5 cells/ml, and the cells are seeded into a 96-well plate at 100 μl/well. PBS is added in an amount of 100 μl to a line of wells in both ends where the cells are not seeded.
3) The cells are cultured in a CO2 incubator for 1 day.
4) DMSO is added to a test compound, and the EBSS is further added thereto and dissolved. Ultrasonic waves, heating.
5) The compound solution of the highest concentration is transferred to the adjacent tube by 300 μL. This operation is repeated to prepare solutions having serial dilution concentration.
10) For each compound, compound solutions of 8-serial dilutions are dispensed at 100 μL/well.
11) The plates are allowed to stand still in a dark place (in a drawer of a lab bench) for 60 minutes.
12) Thereafter, the plates are irradiated with UV for 70 minutes (1200 μW/cm^2). The plate not irradiated is put in an empty box.
1) Neutral red (NR) is prepared in an amount of 50 μg/ml
3) The NR solution is dispensed at 100 μL/well.
4) Culturing is performed for 3 hours in a CO2 incubator.
8) The NR eluent is dispensed at 150 μl/well.
10) An absorbance at 540 nm is measured using a microplate reader.
According to the above test example 8, several compounds of formula (I) were evaluated. […] Herein, MPE refers to a value showing Mean Photo Effect. MPE can be calculated according to Equation 2 of the following document, for example.

male ICR mouse [2] = assay: Methamphetamine (MAP)-induced increase in level of physical activity (hyperactivity) of mouse; format: in vivo; settings: oral dose 0.03 mg/kg; MAP 1.5 mg/kg; significance P<0.05 vs vehicle
Method: as §1, §2
For the normal mouse (mouse administered with physiological saline) and the mouse administered with the medication increasing the level of physical activity, Student's T test was performed in the respective intervals to judge the effect. […]

Chain of human 5-HT5A receptor (P47898 whole entry): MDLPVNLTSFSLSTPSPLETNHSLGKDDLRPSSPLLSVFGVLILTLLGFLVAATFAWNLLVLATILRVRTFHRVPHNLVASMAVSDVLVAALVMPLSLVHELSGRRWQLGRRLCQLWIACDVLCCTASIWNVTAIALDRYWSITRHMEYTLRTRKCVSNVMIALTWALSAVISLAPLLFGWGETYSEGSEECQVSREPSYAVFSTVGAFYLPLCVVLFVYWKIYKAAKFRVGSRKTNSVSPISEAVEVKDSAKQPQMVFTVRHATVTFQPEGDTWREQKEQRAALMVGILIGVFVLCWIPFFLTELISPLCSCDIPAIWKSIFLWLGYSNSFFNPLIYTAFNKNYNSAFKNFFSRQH

SMILES | Ki (human 5-HT5A receptor) | also measured
NC(N)=NC(=O)N1CCc2c(Cl)ccc(-c3c(F)cc(F)cc3F)c2C1 [Ex 23] | 1.1 nM | hyperactivity induced by MK-801 (male ICR mouse [1]; oral dose 0.03 mg/kg): significantly suppressed; scopolamine-induced spontaneous alternation behavior (male ddy mouse; oral dose 0.003 mg/kg): significantly inhibited; MPE (Mean Photo Effect) (BALB/3T3): 0.00
NC(N)=NC(=O)N1Cc2c(-c3ccc(F)cc3F)ccc(F)c2C2(CC2)C1 [Ex 80] | 0.85 nM | 
NC(N)=NC(=O)N1CCc2c(F)ccc(-c3ncc(Cl)cc3Cl)c2C1 [Ex 62] | 1.9 nM | hyperactivity induced by MK-801 (male ICR mouse [1]; oral dose 0.01 mg/kg): significantly suppressed; scopolamine-induced spontaneous alternation behavior (male ddy mouse; oral dose 0.003 mg/kg): significantly inhibited
Cc1ccc(-c2ncc(F)cc2F)c2c1CCN(C(=O)N=C(N)N)C2 [Ex 60] | 3.9 nM | hyperactivity induced by MK-801 (male ICR mouse [1]; oral dose 0.03 mg/kg): significantly suppressed
NC(N)=NC(=O)N1CCc2c(F)ccc(-c3c(F)cccc3F)c2C1 [Ex 28] | 1.1 nM | hyperactivity induced by MK-801 (male ICR mouse [1]; oral dose 0.03 mg/kg): significantly suppressed; hyperactivity induced by MAP (male ICR mouse [2]): significantly inhibited; scopolamine-induced spontaneous alternation behavior (male ddy mouse; oral dose 0.003 mg/kg): significantly inhibited; MPE (Mean Photo Effect) (BALB/3T3): 0.00
NC(N)=NC(=O)N1CCc2c(F)ccc(-c3ncc(Cl)cc3F)c2C1 [Ex 4, 8-(5-chloro-3-fluoropyridin-2-yl)-N-(diaminomethylene)-5-fluoro-3,4-dihydroisoquinoline-2(1H)-carboxamide] | 4.3 nM | 
NC(N)=NC(=O)N1Cc2c(-c3ccc(F)cc3F)ccc(Cl)c2C(F)C1 (stereo not drawn) [Ex 49] | 6.6 nM | 
NC(N)=NC(=O)N1CCc2cccc(-c3ncc(F)cc3F)c2C1 [Ex 81] | 4.2 nM | 
NC(N)=NC(=O)N1CCc2c(F)ccc(-c3cc(F)c(F)cc3F)c2C1 [Ex 79] | 3.7 nM | 
NC(N)=NC(=O)N1Cc2c(-c3c(F)cc(F)cc3F)ccc(F)c2C2(CC2)C1 [Ex 74] | 0.88 nM | 
NC(N)=NC(=O)N1CCc2c(Cl)ccc(-c3c(F)cncc3F)c2C1 [Ex 61] | 2.5 nM | 
Cl.NC(N)=NC(=O)N1CCc2c(F)ccc(-c3ncc(F)cc3F)c2C1 [Ex 46] | 6.9 nM | hyperactivity induced by MK-801 (male ICR mouse [1]; oral dose 0.03 mg/kg): significantly suppressed; scopolamine-induced spontaneous alternation behavior (male ddy mouse; oral dose 0.003 mg/kg): significantly inhibited
NC(N)=NC(=O)N1Cc2c(-c3c(F)cccc3F)ccc(F)c2C2(CC2)C1 [Ex 66] | 0.75 nM | 
NC(N)=NC(=O)N1Cc2c(-c3ccccc3F)ccc(F)c2C2(CC2)C1 [Ex 86] | 0.95 nM | 
CC1CN(C(=O)N=C(N)N)Cc2c(-c3c(F)cccc3F)ccc(F)c21 (stereo not drawn) [Ex 69] | 1.6 nM | 
NC(N)=NC(=O)N1Cc2c(C3CC3)ccc(F)c2C2(CC2)C1 [Ex 76] | 2.7 nM | hyperactivity induced by MK-801 (male ICR mouse [1]; oral dose 0.1 mg/kg): significantly suppressed
NC(N)=NC(=O)N1CCc2c(Cl)ccc(-c3ccc(F)cc3F)c2C1 [Ex 44] | 2.7 nM | 
NC(N)=NC(=O)N1CCc2cccc(-c3cc(F)c(F)cc3F)c2C1 [Ex 8] | 3.6 nM | 
NC(N)=NC(=O)N1CCc2c(F)ccc(-c3c(F)cc(F)cc3F)c2C1 [Ex 26] | 0.68 nM | hyperactivity induced by MK-801 (male ICR mouse [1]; oral dose 0.03 mg/kg): significantly suppressed; hyperactivity induced by MAP (male ICR mouse [2]): significantly inhibited; scopolamine-induced spontaneous alternation behavior (male ddy mouse; oral dose 0.03 mg/kg): significantly inhibited; MPE (Mean Photo Effect) (BALB/3T3): 0.00
NC(N)=NC(=O)N1Cc2c(-c3cc(F)c(F)cc3F)ccc(F)c2C2(CC2)C1 [Ex 78] | 1.3 nM | hyperactivity induced by MK-801 (male ICR mouse [1]; oral dose 0.1 mg/kg): significantly suppressed; scopolamine-induced spontaneous alternation behavior (male ddy mouse; oral dose 0.03 mg/kg): significantly inhibited
